From patent US20080293712A1, “Benzo[C][2,7]Naphtyridine Derivatives, Methods of Making Thereof and Methods of Use Thereof” (WYETH, priority 2007, published 2008)
pIC50: −log10 of the molar value.

Biological target: T1, PDK-1 (Homo sapiens, UniProt O15530)
T1 sequence (O15530 1-556): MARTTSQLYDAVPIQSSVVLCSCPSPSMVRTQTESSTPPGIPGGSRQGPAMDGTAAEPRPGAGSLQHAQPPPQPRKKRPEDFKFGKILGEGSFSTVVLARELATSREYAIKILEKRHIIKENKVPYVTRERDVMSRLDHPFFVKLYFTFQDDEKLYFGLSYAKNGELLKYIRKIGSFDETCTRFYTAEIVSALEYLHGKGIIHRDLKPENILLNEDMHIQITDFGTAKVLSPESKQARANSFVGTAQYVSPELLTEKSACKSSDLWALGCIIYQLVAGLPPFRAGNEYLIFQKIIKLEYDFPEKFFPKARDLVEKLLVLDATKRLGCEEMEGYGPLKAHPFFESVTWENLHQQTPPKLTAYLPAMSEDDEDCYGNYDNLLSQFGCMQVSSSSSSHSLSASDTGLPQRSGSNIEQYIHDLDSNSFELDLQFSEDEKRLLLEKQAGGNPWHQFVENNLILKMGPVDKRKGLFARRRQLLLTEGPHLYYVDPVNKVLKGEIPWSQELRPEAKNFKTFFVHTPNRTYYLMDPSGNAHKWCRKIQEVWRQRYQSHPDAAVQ
Assay: PDK-1 kinase inhibition ELISA assay (phosphorylation of His6-tagged SGK1 S422D by PDK-1)
Assay type: biochemical
Conditions: PDK-1 ELISA, Table 11; read-out: Average IC50

SMILES	pIC50
COc1cc2ncc3c(N)nc(-c4cncc(OC[C@@H](N)CN5CCC[C@H]5c5nccs5)c4)cc3c2cc1OC [Ib-98, 2-[5-({(2S)-2-amino-3-[(2S)-2-(1,3-thiazol-2-yl)pyrrolidin-1-yl]propyl}oxy)pyridin-3-yl]-8,9-dimethoxybenzo[c][2,7]naphthyridin-4-amine]	8.00
COc1cc2ncc3c(N)nc(-c4cncc(Nc5cccc(CN)c5)c4)cc3c2cc1OC [Ib-189, 2-(5-{[3-(aminomethyl)phenyl]amino}pyridin-3-yl)-8,9-dimethoxybenzo[c][2,7]naphthyridin-4-amine]	7.57
COCCOc1cc2ncc3c(N)nc(N4CCCCC4C)cc3c2cc1OC (stereo not shown) [Ia-43, 9-methoxy-8-(2-methoxyethoxy)-2-(2-methylpiperidin-1-yl)benzo[c]-2,7-naphthyridin-4-amine]	5.61
COc1cc2ncc3c(N)nc(-c4cncc(Nc5ccc(C(=O)Nc6ccccc6)cc5)c4)cc3c2cc1OC [Ib-193, 4-{[5-(4-amino-8,9-dimethoxybenzo[c][2,7]naphthyridin-2-yl)pyridin-3-yl]amino}-N-phenylbenzamide]	6.30
COc1cc2ncc3c(N)nc(-c4cncc(Nc5ccccn5)c4)cc3c2cc1OC [Ib-199, 8,9-dimethoxy-2-[5-(pyridin-2-ylamino)pyridin-3-yl]benzo[c][2,7]naphthyridin-4-Amine]	6.32
COc1cc2ncc3c(N)nc(-c4ccc(Br)c(F)c4)cc3c2cc1OC [Ib-234, 2-(4-bromo-3-fluorophenyl)-8,9-dimethoxybenzo[c][2,7]naphthyridin-4-amine]	6.00
COCCOc1cc2ncc3c(N)nc(N4CCOCC4)cc3c2cc1OC [Ia-57, 9-Methoxy-8-(2-methoxyethoxy)-2-morpholin-4-ylbenzo[c]-2,7-naphthyridin-4-amine]	5.19
CCOc1cc2ncc3c(N)nc(-n4ccnc4)cc3c2cc1NC(=S)NCCN1CCOCC1 [Ia-26, N-[4-amino-8-ethoxy-2-(1H-imidazol-1-yl)benzo[c]-2,7-naphthyridin-9-yl]-N′-(2-morpholin-4-ylethyl)thiourea]	6.26
COc1cc2ncc3c(N)nc(-c4cncc(OC[C@@H](N)Cc5c[nH]c6ccccc56)c4)cc3c2cc1OC [Ib-13, 2-(5-{[(2S)-2-amino-3-(1H-indol-3-yl)propyl]oxy}pyridin-3-yl)-8,9-dimethoxybenzo[c]-2,7-naphthyridin-4-amine]	8.22
COc1cc2ncc3c(N)nc(-c4cncc(Nc5ccccc5C#N)c4)cc3c2cc1OC [Ib-178, 2-{[5-(4-amino-8,9-dimethoxybenzo[c][2,7]naphthyridin-2-yl)pyridin-3-yl]amino}benzonitrile]	6.98
COc1cc2ncc3c(N)nc(-c4cncc(OC[C@@H](N)COc5nc6ccccc6[nH]5)c4)cc3c2cc1OC [Ib-146, 2-(5-{[(2R)-2-amino-3-(1H-benzimidazol-2-yloxy)propyl]oxy}pyridin-3-yl)-8,9-dimethoxybenzo[c][2,7]naphthyridin-4-amine]	8.70
COc1cc2ncc3c(N)nc(-c4cncc(OC[C@@H](N)CNC5CCOCC5)c4)cc3c2cc1OC [Ib-96, (2S)-3-{[5-(4-amino-8,9-dimethoxybenzo[c][2,7]naphthyridin-2-yl)pyridin-3-yl]oxy}-N1-(tetrahydro-2H-pyran-4-yl)propane-1,2-diamine]	7.59
COc1cc2ncc3c(N)nc(-c4cncc(OC[C@@H](N)CSc5ccncc5)c4)cc3c2cc1OC [Ib-164, 2-(5-{[(2R)-2-amino-3-(pyridin-4-ylthio)propyl]oxy}pyridin-3-yl)-8,9-dimethoxybenzo[c][2,7]naphthyridin-4-amine]	8.00
COc1cc2ncc3c(N)nc(-c4cc(F)cc(CCCN)c4)cc3c2cc1OC [Ib-250, 2-(3-(3-Aminopropyl)-5-fluorophenyl)-8,9-dimethoxybenzo[c][2,7]naphthyridin-4-amine]	7.47
COc1cc2ncc3c(N)nc(-c4cccnc4C)cc3c2cc1OC [Ib-60]	6.27
COc1cc2ncc3c(N)nc(-c4cncc(OC[C@@H](N)CNCC5(c6ccccc6)CCCC5)c4)cc3c2cc1OC [Ib-105, (2S)-3-{[5-(4-amino-8,9-dimethoxybenzo[c][2,7]naphthyridin-2-yl)pyridin-3-yl]oxy}-N1-[(1-phenylcyclopentyl)methyl]propane-1,2-diamine]	7.39
COCCOc1cc2ncc3c(N)nc(N4CCCC4)cc3c2cc1OC [Ia-62, 9-Methoxy-8-(2-methoxyethoxy)-2-pyrrolidin-1-ylbenzo[c]-2,7-naphthyridin-4-amine]	5.73
CCCCNC(=N)c1cncc(-c2cc3c(cnc4cc(OC)c(OC)cc43)c(N)n2)c1 [Ib-268, 5-(4-Amino-8,9-dimethoxybenzo[c][2,7]naphthyridin-2-yl)-N-butylnicotinimidamide]	6.00
COc1cc2ncc3c(N)nc(-c4cccc(C(=O)O)c4)cc3c2cc1OC [Ib-76, 3-(4-amino-8,9-dimethoxybenzo[c][2,7]naphthyridin-2-yl)benzoic acid]	6.28

Further lines, results first:

pIC50	SMILES
7.80	COc1cc2ncc3c(N)nc(-c4cncc(OC[C@@H](N)COS(C)(=O)=O)c4)cc3c2cc1OC [Ib-7, (2R)-2-Amino-3-{[5-(4-amino-8,9-dimethoxybenzo[c]-2,7-naphthyridin-2-yl)pyridin-3-yl]oxy}propyl methanesulfonate]
7.11	COc1cc2ncc3c(N)nc(-c4cncc(OC[C@@H](N)CNC(C)(C)C)c4)cc3c2cc1OC [Ib-86, (2S)-3-{[5-(4-amino-8,9-dimethoxybenzo[c][2,7]naphthyridin-2-yl)pyridin-3-yl]oxy}-N1-tert-butylpropane-1,2-diamine]
7.57	COc1cc2ncc3c(N)nc(-c4cncc(CCCN)c4)cc3c2cc1OC [Ib-256, 2-[5-(3-aminopropyl)pyridin-3-yl]-8,9-dimethoxybenzo[c][2,7]naphthyridin-4-amine]
7.22	COc1cc2ncc3c(N)nc(-c4cncc(Oc5ncccc5N)c4)cc3c2cc1OC [Ib-169, 2-{5-[(3-Aminopyridin-2-yl)oxy]pyridin-3-yl}-8,9-dimethoxybenzo[c][2,7]naphthyridin-4-amine]
8.30	COc1cc2ncc3c(N)nc(-c4cncc(OCCN)c4)cc3c2cc1OC [Ib-11, 2-(5-(2-aminoethoxy)pyridin-3-yl)-8,9-dimethoxybenzo [c][2,7]naphthyridin-4-amine]
8.22	COc1cc2ncc3c(N)nc(-c4cncc(OC[C@@H](N)CO)c4)cc3c2cc1OC [Ib-10, (2S)-2-amino-3-{[5-(4-amino-8,9-dimethoxybenzo[c]-2,7-naphthyridin-2-yl)pyridin-3-yl]oxy}propan-1-ol]
8.52	COc1cc2ncc3c(N)nc(-c4cncc(OC[C@@H](N)CSc5nccs5)c4)cc3c2cc1OC [Ib-166, 2-(5-{[(2R)-2-amino-3-(1,3-thiazol-2-ylthio)propyl]oxy}pyridin-3-yl)-8,9-dimethoxybenzo[c][2,7]naphthyridin-4-amine]
7.20	COc1cc2ncc3c(N)nc(-c4cncc(OC[C@@H](N)CNC5CCC5)c4)cc3c2cc1OC [Ib-100, (2S)-3-{[5-(4-amino-8,9-dimethoxybenzo[c][2,7]naphthyridin-2-yl)pyridin-3-yl]oxy}-N1-cyclobutylpropane-1,2-diamine]
8.40	COc1cc2ncc3c(N)nc(-c4cncc(OC[C@@H](N)CSc5ccccc5)c4)cc3c2cc1OC [Ib-162, 2-(5-{[(2R)-2-amino-3-(phenylthio)propyl]oxy}pyridin-3-yl)-8,9-dimethoxybenzo[c][2,7]naphthyridin-4-amine]
